# Measured values published in PubChem BioAssay (NCI).
#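 Briefly, cells in 96-well plates were exposed to five compound concentrations for 48 h, and endpoints were estimated by linear interpolation. TGI is the concentration that stops growth completely.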
# Key:
# Test in all cases: DTP human tumour cell line panel, 48 h
# MALME-3M melanoma = tested on: MALME-3M melanoma
# KM12 colon = tested on: KM12 colon
# K-562 leukemia = tested on: K-562 leukemia
# SNB-19 CNS = tested on: SNB-19 CNS
# TK-10 renal = tested on: TK-10 renal
# NCI/ADR-RES ovarian = tested on: NCI/ADR-RES ovarian
# BT-549 breast = tested on: BT-549 breast
# HCT-15 colon = tested on: HCT-15 colon
# OVCAR-4 ovarian = tested on: OVCAR-4 ovarian
# MCF7 breast = tested on: MCF7 breast
# OVCAR-8 ovarian = tested on: OVCAR-8 ovarian
# NCI-H522 lung = tested on: NCI-H522 lung
# SF-268 CNS = tested on: SF-268 CNS
# SF-539 CNS = tested on: SF-539 CNS
# OVCAR-3 ovarian = tested on: OVCAR-3 ovarian
# MOLT-4 leukemia = tested on: MOLT-4 leukemia
# EKVX NSCLC = tested on: EKVX NSCLC
# CCRF-CEM leukemia = tested on: CCRF-CEM leukemia
# HOP-62 NSCLC = tested on: HOP-62 NSCLC
# COLO 205 colon = tested on: COLO 205 colon
# HCT-116 colon = tested on: HCT-116 colon
# SW-620 colon = tested on: SW-620 colon
# SK-MEL-2 melanoma = tested on: SK-MEL-2 melanoma
# UACC-62 melanoma = tested on: UACC-62 melanoma
# NCI-H23 lung = tested on: NCI-H23 lung
# RXF 393 renal = tested on: RXF 393 renal
# SK-MEL-5 melanoma = tested on: SK-MEL-5 melanoma
# PC-3 prostate = tested on: PC-3 prostate
# SK-MEL-28 melanoma = tested on: SK-MEL-28 melanoma
# DU-145 prostate = tested on: DU-145 prostate
# M14 melanoma = tested on: M14 melanoma
# UO-31 renal = tested on: UO-31 renal
# T-47D breast = tested on: T-47D breast
# MDA-MB-435 = tested on: MDA-MB-435
# NCI-H226 lung = tested on: NCI-H226 lung
# SF-295 CNS = tested on: SF-295 CNS
# 786-0 renal = tested on: 786-0 renal
# OVCAR-5 ovarian = tested on: OVCAR-5 ovarian
# SN12C renal = tested on: SN12C renal
# HS 578T breast = tested on: HS 578T breast
# U251 CNS = tested on: U251 CNS
# MDA-MB-231 breast = tested on: MDA-MB-231 breast
# SK-OV-3 ovarian = tested on: SK-OV-3 ovarian
# A549 NSCLC = tested on: A549 NSCLC
# MDA-N = tested on: MDA-N
# HT29 colon = tested on: HT29 colon
# RPMI-8226 leukemia = tested on: RPMI-8226 leukemia
# CAKI-1 renal = tested on: CAKI-1 renal
# IGROV1 ovarian = tested on: IGROV1 ovarian
# SNB-75 CNS = tested on: SNB-75 CNS
# HCC-2998 colon = tested on: HCC-2998 colon
# LOX IMVI melanoma = tested on: LOX IMVI melanoma
# NCI-H460 lung = tested on: NCI-H460 lung
# HOP-92 NSCLC = tested on: HOP-92 NSCLC
# UACC-257 melanoma = tested on: UACC-257 melanoma
# HL-60(TB) leukemia = tested on: HL-60(TB) leukemia
# ACHN renal = tested on: ACHN renal
# A498 renal = tested on: A498 renal
compound,measurement,setting,value
Cc1ccc(/C=C2\NC(=S)NC2=O)cc1,TGI,MALME-3M melanoma,> 100 µM
same,TGI,KM12 colon,> 100 µM
same,TGI,K-562 leukemia,> 100 µM
same,TGI,SNB-19 CNS,> 100 µM
same,TGI,TK-10 renal,> 100 µM
same,TGI,NCI/ADR-RES ovarian,> 100 µM
same,TGI,BT-549 breast,> 100 µM
same,TGI,HCT-15 colon,> 100 µM
same,TGI,OVCAR-4 ovarian,> 100 µM
same,TGI,MCF7 breast,> 100 µM
same,TGI,OVCAR-8 ovarian,> 100 µM
same,TGI,NCI-H522 lung,> 100 µM
same,TGI,SF-268 CNS,> 100 µM
same,TGI,SF-539 CNS,> 100 µM
same,TGI,OVCAR-3 ovarian,> 100 µM
same,TGI,MOLT-4 leukemia,> 100 µM
same,TGI,EKVX NSCLC,> 100 µM
same,TGI,CCRF-CEM leukemia,> 100 µM
same,TGI,HOP-62 NSCLC,> 100 µM
same,TGI,COLO 205 colon,> 100 µM
same,TGI,HCT-116 colon,> 100 µM
same,TGI,SW-620 colon,> 100 µM
same,TGI,SK-MEL-2 melanoma,> 100 µM
same,TGI,UACC-62 melanoma,> 100 µM
same,TGI,NCI-H23 lung,> 100 µM
same,TGI,RXF 393 renal,> 100 µM
same,TGI,SK-MEL-5 melanoma,> 100 µM
same,TGI,PC-3 prostate,> 100 µM
same,TGI,SK-MEL-28 melanoma,> 100 µM
same,TGI,DU-145 prostate,> 100 µM
same,TGI,M14 melanoma,> 100 µM
same,TGI,UO-31 renal,> 100 µM
same,TGI,T-47D breast,> 100 µM
same,TGI,MDA-MB-435,> 100 µM
same,TGI,NCI-H226 lung,> 100 µM
same,TGI,SF-295 CNS,> 100 µM
same,TGI,786-0 renal,> 100 µM
same,TGI,OVCAR-5 ovarian,> 100 µM
same,TGI,SN12C renal,> 100 µM
same,TGI,HS 578T breast,> 100 µM
same,TGI,U251 CNS,> 100 µM
same,TGI,MDA-MB-231 breast,> 100 µM
same,TGI,SK-OV-3 ovarian,> 100 µM
same,TGI,A549 NSCLC,> 100 µM
same,TGI,MDA-N,> 100 µM
same,TGI,HT29 colon,> 100 µM
same,TGI,RPMI-8226 leukemia,> 100 µM
same,TGI,CAKI-1 renal,> 100 µM
same,TGI,IGROV1 ovarian,> 100 µM
same,TGI,SNB-75 CNS,> 100 µM
same,TGI,HCC-2998 colon,> 100 µM
same,TGI,LOX IMVI melanoma,> 100 µM
COc1cc(C2c3cc4c(cc3OC(NNS(=O)(=O)c3ccc(C)cc3)C2C)OCO4)cc(OC)c1OC (stereo not drawn),TGI,MALME-3M melanoma,> 60.8 µM
same,TGI,KM12 colon,32.3 µM
same,TGI,SNB-19 CNS,> 49.1 µM
same,TGI,TK-10 renal,> 79 µM
same,TGI,NCI/ADR-RES ovarian,> 100 µM
same,TGI,BT-549 breast,45.6 µM
same,TGI,HCT-15 colon,> 22.8 µM
same,TGI,OVCAR-4 ovarian,48.4 µM
same,TGI,MCF7 breast,> 39.8 µM
same,TGI,NCI-H460 lung,12.4 µM
same,TGI,HOP-92 NSCLC,50.1 µM
same,TGI,OVCAR-8 ovarian,46.8 µM
same,TGI,NCI-H522 lung,4.87 µM
same,TGI,UACC-257 melanoma,> 53.2 µM
same,TGI,SF-268 CNS,> 70.5 µM
same,TGI,SF-539 CNS,3.96 µM
same,TGI,OVCAR-3 ovarian,7.78 µM
same,TGI,MOLT-4 leukemia,> 100 µM
same,TGI,EKVX NSCLC,18.3 µM
same,TGI,HOP-62 NSCLC,4.68 µM
same,TGI,COLO 205 colon,16.8 µM
same,TGI,HCT-116 colon,12.1 µM
same,TGI,SW-620 colon,> 100 µM
same,TGI,SK-MEL-2 melanoma,36.9 µM
same,TGI,UACC-62 melanoma,20.3 µM
same,TGI,NCI-H23 lung,> 74.6 µM
same,TGI,RXF 393 renal,23.8 µM
same,TGI,SK-MEL-5 melanoma,25 µM
same,TGI,PC-3 prostate,> 72.5 µM
same,TGI,SK-MEL-28 melanoma,> 91.2 µM
same,TGI,HL-60(TB) leukemia,6.59 µM
same,TGI,DU-145 prostate,> 100 µM
same,TGI,M14 melanoma,14.5 µM
same,TGI,UO-31 renal,> 100 µM
same,TGI,T-47D breast,> 100 µM
same,TGI,MDA-MB-435,2.25 µM
same,TGI,NCI-H226 lung,13.2 µM
same,TGI,SF-295 CNS,6.86 µM
same,TGI,786-0 renal,31.5 µM
same,TGI,OVCAR-5 ovarian,> 100 µM
same,TGI,SN12C renal,> 71.4 µM
same,TGI,ACHN renal,> 52 µM
same,TGI,HS 578T breast,15.2 µM
same,TGI,U251 CNS,13.4 µM
same,TGI,MDA-MB-231 breast,> 64.1 µM
same,TGI,SK-OV-3 ovarian,> 70.6 µM
same,TGI,A549 NSCLC,34.4 µM
same,TGI,A498 renal,5.69 µM
same,TGI,MDA-N,2.01 µM
same,TGI,HT29 colon,5.38 µM
same,TGI,RPMI-8226 leukemia,18.4 µM
same,TGI,CAKI-1 renal,23.9 µM
same,TGI,IGROV1 ovarian,> 67.3 µM
same,TGI,SNB-75 CNS,17.1 µM
same,TGI,HCC-2998 colon,> 23.4 µM
same,TGI,LOX IMVI melanoma,> 100 µM
